Source: PubChem BioAssay AID328 (DTP/NCI, 2004)
“And” between values parts separate entries of the source, which are not always exact repeats. Equal values may be shown once. Toxic doses and inconclusive results are not listed.

Test system: BDF1 mice, P388 leukemia ip, median survival T/C
Assay: NCI In Vivo Anticancer Drug Screen. Data for tumor model P388 Leukemia (intraperitoneal) in B6D2F1 (BDF1) mice
Conditions: endpoint: median survival time, higher = longer survival
Procedure, shortened: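 Vehicle-dosed animals serve as the reference; survival of compound-dosed, tumour-implanted mice is divided by it.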

[1] = dose: 12.5 mg/kg/injection, schedule: Q01DX009 (ip), vehicle: saline
[2] = dose: 25.0 mg/kg/injection, schedule: Q01DX009 (ip), vehicle: saline
[3] = dose: 50.0 mg/kg/injection, schedule: Q01DX009 (ip), vehicle: saline
[4] = dose: 100.0 mg/kg/injection, schedule: Q01DX009 (ip), vehicle: Klucel (hydroxypropylcellulose) (HPC)

CC(=O)OC(C)(C(=O)/C=C/C(C)(C)O)C1C(O)CC2(C)C3CC=C4C(C=C(O)C(=O)C4(C)C)C3(C)C(=O)CC12C (stereo not drawn)
T/C (dose: 0.25 mg/kg/injection, schedule: Q01DX010 (ip), vehicle: carboxymethylcellulose (CMC)): 100 % of control | T/C (dose: 0.5 mg/kg/injection, schedule: Q01DX010 (ip), vehicle: carboxymethylcellulose (CMC)): 96 % of control | T/C (dose: 1.0 mg/kg/injection, schedule: Q01DX010 (ip), vehicle: carboxymethylcellulose (CMC)): 98 % of control | T/C (dose: 2.0 mg/kg/injection, schedule: Q01DX010 (ip), vehicle: carboxymethylcellulose (CMC)): 117 % of control | T/C (dose: 4.0 mg/kg/injection, schedule: Q01DX010 (ip), vehicle: carboxymethylcellulose (CMC)): 105 % of control

NCCS(=O)(=O)O
T/C [1]: 90 % of control and 100 % of control | T/C (dose: 17.5 mg/kg/injection, schedule: Q01DX009 (ip), vehicle: saline): 123 % of control | T/C [2]: 110 % of control | T/C (dose: 35.0 mg/kg/injection, schedule: Q01DX009 (ip), vehicle: saline): 123 % of control | T/C [3]: 100 % of control (2×) and 113 % of control | T/C (dose: 70.0 mg/kg/injection, schedule: Q01DX009 (ip), vehicle: saline): 107 % of control | T/C (dose: 100.0 mg/kg/injection, schedule: Q01DX009 (ip), vehicle: saline): 86 % of control and 94 % of control | T/C (dose: 200.0 mg/kg/injection, schedule: Q01DX009 (ip), vehicle: saline): 100 % of control | T/C (dose: 400.0 mg/kg/injection, schedule: Q01DX009 (ip), vehicle: saline): 95 % of control and 105 % of control

CC(CCC/C=C/CCCN(C)C(=N)N)CC(C)C1OC(=O)C(C)C(O)/C=C/C(C)C(O)C(C)C(O)C(C)C(O)CCCC(O)CC2(O)OC(CC(OC(=O)CC(=O)O)CC(O)CC(O)C(C)C(O)/C=C/C=C/C1C)CC(O)C2O (stereo not drawn)
T/C (dose: 1.8 mg/kg/injection, schedule: Q01DX009 (ip), vehicle: saline with Tween-80): 124 % of control | T/C (dose: 1.82 mg/kg/injection, schedule: Q04DX003 (ip), vehicle: saline): 90 % of control | T/C (dose: 2.5 mg/kg/injection, schedule: Q01DX001 (ip), vehicle: saline): 109 % of control | T/C (dose: 3.65 mg/kg/injection, schedule: Q01DX009 (ip), vehicle: saline with Tween-80): 116 % of control | T/C (dose: 3.65 mg/kg/injection, schedule: Q04DX003 (ip), vehicle: saline): 109 % of control | T/C (dose: 5.0 mg/kg/injection, schedule: Q01DX001 (ip), vehicle: saline): 100 % of control | T/C (dose: 7.3 mg/kg/injection, schedule: Q01DX009 (ip), vehicle: saline with Tween-80): 104 % of control | T/C (dose: 7.3 mg/kg/injection, schedule: Q04DX003 (ip), vehicle: saline): 104 % of control | T/C (dose: 10.0 mg/kg/injection, schedule: Q01DX001 (ip), vehicle: saline): 109 % of control | T/C (dose: 10.0 mg/kg/injection, schedule: Q04DX003 (ip), vehicle: saline): 100 % of control

C=C1N(C)c2ccccc2C1(C)C
T/C (dose: 1.47 mg/kg/injection, schedule: Q01DX009 (ip), vehicle: saline with Tween-80): 104 % of control | T/C (dose: 2.95 mg/kg/injection, schedule: Q01DX009 (ip), vehicle: saline with Tween-80): 118 % of control | T/C (dose: 5.9 mg/kg/injection, schedule: Q01DX009 (ip), vehicle: saline with Tween-80): 122 % of control

COc1cccc(/C=C/C(=O)c2ccc(Cl)cc2)c1OC
T/C (dose: 50.0 mg/kg/injection, schedule: Q01DX009 (ip), vehicle: other): 95 % of control | T/C (dose: 100.0 mg/kg/injection, schedule: Q01DX009 (ip), vehicle: other): 104 % of control | T/C (dose: 100.0 mg/kg/injection, schedule: Q01DX009 (ip), vehicle: saline with Tween-80): 100 % of control | T/C (dose: 200.0 mg/kg/injection, schedule: Q01DX009 (ip), vehicle: other): 95 % of control | T/C (dose: 400.0 mg/kg/injection, schedule: Q01DX009 (ip), vehicle: saline with Tween-80): 100 % of control

O=[N+]([O-])[O-].OCCNCCNCC[OH2+].OCCNCCNCC[OH2+].[Cu+2]
T/C (dose: 6.25 mg/kg/injection, schedule: Q01DX009 (ip), vehicle: saline): 97 % of control | T/C [1]: 100 % of control | T/C [2]: 88 % of control

O=[N+]([O-])/C=C\c1ccc2c(c1)OCO2
T/C (dose: 25.0 mg/kg/injection, schedule: Q01DX009 (ip), vehicle: Klucel (hydroxypropylcellulose) (HPC)): 111 % of control and 120 % of control | T/C (dose: 35.0 mg/kg/injection, schedule: Q01DX009 (ip), vehicle: Klucel (hydroxypropylcellulose) (HPC)): 105 % of control | T/C (dose: 75.0 mg/kg/injection, schedule: Q01DX009 (ip), vehicle: Klucel (hydroxypropylcellulose) (HPC)): 95 % of control | T/C [4]: 100 % of control and 105 % of control | T/C (dose: 100.0 mg/kg/injection, schedule: Q04DX003 (ip), vehicle: Klucel (hydroxypropylcellulose) (HPC)): 104 % of control | T/C (dose: 200.0 mg/kg/injection, schedule: Q04DX003 (ip), vehicle: Klucel (hydroxypropylcellulose) (HPC)): 108 % of control

ClCCc1cnc[nH]1
T/C (dose: 6.25 mg/kg/injection, schedule: Q04DX003 (ip), vehicle: water): 104 % of control | T/C (dose: 12.5 mg/kg/injection, schedule: Q04DX003 (ip), vehicle: water): 108 % of control | T/C (dose: 25.0 mg/kg/injection, schedule: Q04DX003 (ip), vehicle: water): 112 % of control | T/C (dose: 50.0 mg/kg/injection, schedule: Q04DX003 (ip), vehicle: water): 105 % of control | T/C (dose: 100.0 mg/kg/injection, schedule: Q04DX003 (ip), vehicle: water): 98 % of control

CC(CNCCN)C[Si](C)(C)C (stereo not drawn)
T/C [1]: 95 % of control | T/C (dose: 12.5 mg/kg/injection, schedule: Q04DX003 (ip), vehicle: saline): 88 % of control | T/C [2]: 100 % of control | T/C (dose: 25.0 mg/kg/injection, schedule: Q04DX003 (ip), vehicle: saline): 100 % of control | T/C [3]: 90 % of control | T/C (dose: 50.0 mg/kg/injection, schedule: Q04DX003 (ip), vehicle: saline): 94 % of control

C[C@]12C[C@H](O)[C@H]3[C@@H](CCC4=CC(=O)CC[C@@]43C)[C@@H]1CC[C@@H]2C(=O)CO
T/C (dose: 45.0 mg/kg/injection, schedule: Q04DX003 (sc), vehicle: steriod suspending solution): 95 % of control | T/C (dose: 65.0 mg/kg/injection, schedule: Q04DX003 (sc), vehicle: steriod suspending solution): 100 % of control | T/C (dose: 200.0 mg/kg/injection, schedule: Q04DX003 (sc), vehicle: steriod suspending solution): 115 % of control | T/C (dose: 264.0 mg/kg/injection, schedule: Q01DX009 (sc), vehicle: steriod suspending solution): 109 % of control | T/C (dose: 264.0 mg/kg/injection, schedule: Q04DX003 (sc), vehicle: steriod suspending solution): 110 % of control | T/C (dose: 400.0 mg/kg/injection, schedule: Q01DX009 (sc), vehicle: steriod suspending solution): 122 % of control | T/C (dose: 400.0 mg/kg/injection, schedule: Q04DX003 (sc), vehicle: steriod suspending solution): 110 % of control

O=C(O)COCc1ccccc1
T/C (dose: 100.0 mg/kg/injection, schedule: Q01DX001 (ip), vehicle: saline sonified): 100 % of control | T/C (dose: 200.0 mg/kg/injection, schedule: Q01DX001 (ip), vehicle: saline sonified): 104 % of control | T/C (dose: 400.0 mg/kg/injection, schedule: Q01DX001 (ip), vehicle: saline sonified): 117 % of control

C1OC1CO[C@H]1CO[C@H]2[C@@H]1OC[C@H]2OCC1CO1 (stereo partly drawn)
T/C (dose: 264.0 mg/kg/injection, schedule: Q04DX003 (ip), vehicle: saline): 160 % of control and 168 % of control | T/C (dose: 400.0 mg/kg/injection, schedule: Q04DX003 (ip), vehicle: saline): 180 % of control

O=NN(CCCl)C(=O)Nc1ccc2c3c(cccc13)-c1ccccc1-2
T/C (dose: 50.0 mg/kg/injection, schedule: Q01DX009 (ip), vehicle: Klucel (hydroxypropylcellulose) (HPC)): 156 % of control and 157 % of control | T/C [4]: 156 % of control and 157 % of control | T/C (dose: 200.0 mg/kg/injection, schedule: Q01DX009 (ip), vehicle: Klucel (hydroxypropylcellulose) (HPC)): 161 % of control and 170 % of control | T/C (dose: 400.0 mg/kg/injection, schedule: Q01DX009 (ip), vehicle: Klucel (hydroxypropylcellulose) (HPC)): 93 % of control
